# Tested on: Septoria tritici
# Assay: Test F: wheat leaf blotch, preventive spray on wheat seedlings, visual disease rating
# Format: in vivo
# Conditions: 100 = 100% disease control, 0 = no disease control relative to the controls
# Description: (§1) A hyphen (-) indicates no test results.
row,Compound,Test F rating (disease control) [%]
1,COc1ccc(Nc2c(-c3c(F)cccc3F)c(C)nn2C)c(Cl)c1 [compound 60],100
2,Cc1nn(C)c(Nc2ccc(F)cc2Cl)c1-c1ccc(F)cc1F [compound 61],100
3,COc1cc(F)c(-c2c(C)nn(C)c2C(O)c2ccc(F)cc2F)c(F)c1 (centres unmarked) [compound 62],100
4,COc1ccc(Nc2c(-c3ccc(F)cc3F)c(C)nn2C)c(F)c1 [compound 63],99
5,Cc1nn(C)c(Nc2ccc(F)cc2F)c1-c1ccc(F)cc1F [compound 64],100
6,COc1ccc(Nc2c(-c3ccc(F)cc3F)c(C)nn2C)c(Cl)c1 [compound 66],100
7,Cc1nn(C)c(Nc2ccc(Cl)cc2Cl)c1-c1ccc(F)cc1F [compound 67],100
8,Cc1nn(C)c(Nc2ccc(C#N)cc2F)c1-c1ccc(F)cc1F [compound 68],100
9,Cc1nn(C)c(Nc2c(F)cccc2F)c1-c1c(F)cccc1F [compound 69],100
10,Cc1nn(C)c(Nc2c(F)cc(F)cc2F)c1-c1ccccc1Br [compound 70],100
11,Cc1nn(C)c(Nc2c(F)cccc2F)c1-c1ccc(F)cc1F [compound 71],100

# Tested on: Puccinia recondita f. sp. tritici
# Assay: Test G: wheat leaf rust, spray after inoculation (curative) on wheat seedlings, visual disease rating
# Format: in vivo
# Conditions: sprayed after inoculation, 100 = 100% disease control, 0 = no disease control
# Description: as §1
row,Compound,Test G rating (disease control) [%]
1,COc1ccc(Nc2c(-c3c(F)cccc3F)c(C)nn2C)c(Cl)c1 [compound 60],18
2,Cc1nn(C)c(Nc2ccc(F)cc2Cl)c1-c1ccc(F)cc1F [compound 61],0
3,COc1cc(F)c(-c2c(C)nn(C)c2C(O)c2ccc(F)cc2F)c(F)c1 (centres unmarked) [compound 62],0
4,COc1ccc(Nc2c(-c3ccc(F)cc3F)c(C)nn2C)c(F)c1 [compound 63],0
5,Cc1nn(C)c(Nc2ccc(F)cc2F)c1-c1ccc(F)cc1F [compound 64],0
6,COc1ccc(Nc2c(-c3ccc(F)cc3F)c(C)nn2C)c(Cl)c1 [compound 66],0
7,Cc1nn(C)c(Nc2ccc(Cl)cc2Cl)c1-c1ccc(F)cc1F [compound 67],0
8,Cc1nn(C)c(Nc2ccc(C#N)cc2F)c1-c1ccc(F)cc1F [compound 68],0
9,Cc1nn(C)c(Nc2c(F)cccc2F)c1-c1c(F)cccc1F [compound 69],0
10,Cc1nn(C)c(Nc2c(F)cc(F)cc2F)c1-c1ccccc1Br [compound 70],0
11,Cc1nn(C)c(Nc2c(F)cccc2F)c1-c1ccc(F)cc1F [compound 71],0

# Tested on: Puccinia recondita f. sp. tritici
# Assay: Test H: wheat leaf rust, preventive spray on wheat seedlings, visual disease rating
# Conditions: wheat leaf rust, sprayed the day before inoculation; 100 = 100% disease control, 0 = no disease control
row,Compound,Test H rating (disease control) [%]
1,COc1ccc(Nc2c(-c3c(F)cccc3F)c(C)nn2C)c(Cl)c1 [compound 60],97
2,Cc1nn(C)c(Nc2ccc(F)cc2Cl)c1-c1ccc(F)cc1F [compound 61],99
3,COc1cc(F)c(-c2c(C)nn(C)c2C(O)c2ccc(F)cc2F)c(F)c1 (centres unmarked) [compound 62],99
4,COc1ccc(Nc2c(-c3ccc(F)cc3F)c(C)nn2C)c(F)c1 [compound 63],80
5,Cc1nn(C)c(Nc2ccc(F)cc2F)c1-c1ccc(F)cc1F [compound 64],97
6,COc1ccc(Nc2c(-c3ccc(F)cc3F)c(C)nn2C)c(Cl)c1 [compound 66],91
7,Cc1nn(C)c(Nc2ccc(Cl)cc2Cl)c1-c1ccc(F)cc1F [compound 67],97
8,Cc1nn(C)c(Nc2ccc(C#N)cc2F)c1-c1ccc(F)cc1F [compound 68],80
9,Cc1nn(C)c(Nc2c(F)cccc2F)c1-c1c(F)cccc1F [compound 69],99
10,Cc1nn(C)c(Nc2c(F)cc(F)cc2F)c1-c1ccccc1Br [compound 70],99
11,Cc1nn(C)c(Nc2c(F)cccc2F)c1-c1ccc(F)cc1F [compound 71],99

# Tested on: Botrytis cinerea
# Assay: Test A: tomato Botrytis, preventive spray on tomato seedlings, visual disease rating
# Conditions: tomato Botrytis; 100 = 100% disease control, 0 = no disease control relative to the controls
row,Compound,Test A rating (disease control) [%]
1,COc1ccc(Nc2c(-c3c(F)cccc3F)c(C)nn2C)c(Cl)c1 [compound 60],99
2,Cc1nn(C)c(Nc2ccc(F)cc2Cl)c1-c1ccc(F)cc1F [compound 61],100
3,COc1cc(F)c(-c2c(C)nn(C)c2C(O)c2ccc(F)cc2F)c(F)c1 (centres unmarked) [compound 62],100
4,COc1ccc(Nc2c(-c3ccc(F)cc3F)c(C)nn2C)c(F)c1 [compound 63],99
5,Cc1nn(C)c(Nc2ccc(F)cc2F)c1-c1ccc(F)cc1F [compound 64],99
6,COc1ccc(Nc2c(-c3ccc(F)cc3F)c(C)nn2C)c(Cl)c1 [compound 66],99
7,Cc1nn(C)c(Nc2ccc(Cl)cc2Cl)c1-c1ccc(F)cc1F [compound 67],100
8,Cc1nn(C)c(Nc2ccc(C#N)cc2F)c1-c1ccc(F)cc1F [compound 68],99
9,Cc1nn(C)c(Nc2c(F)cccc2F)c1-c1c(F)cccc1F [compound 69],100
10,Cc1nn(C)c(Nc2c(F)cc(F)cc2F)c1-c1ccccc1Br [compound 70],99
11,Cc1nn(C)c(Nc2c(F)cccc2F)c1-c1ccc(F)cc1F [compound 71],99

# Tested on: Alternaria solani
# Assay: Test B: tomato early blight, preventive spray on tomato seedlings, visual disease rating
# Conditions: tomato early blight; 100 = 100% disease control, 0 = no disease control relative to the controls
row,Compound,Test B rating (disease control) [%]
1,COc1ccc(Nc2c(-c3c(F)cccc3F)c(C)nn2C)c(Cl)c1 [compound 60],97
2,Cc1nn(C)c(Nc2ccc(F)cc2Cl)c1-c1ccc(F)cc1F [compound 61],93
3,COc1cc(F)c(-c2c(C)nn(C)c2C(O)c2ccc(F)cc2F)c(F)c1 (centres unmarked) [compound 62],100
4,COc1ccc(Nc2c(-c3ccc(F)cc3F)c(C)nn2C)c(F)c1 [compound 63],99
5,Cc1nn(C)c(Nc2ccc(F)cc2F)c1-c1ccc(F)cc1F [compound 64],99
6,COc1ccc(Nc2c(-c3ccc(F)cc3F)c(C)nn2C)c(Cl)c1 [compound 66],37
7,Cc1nn(C)c(Nc2ccc(Cl)cc2Cl)c1-c1ccc(F)cc1F [compound 67],64
8,Cc1nn(C)c(Nc2ccc(C#N)cc2F)c1-c1ccc(F)cc1F [compound 68],51
9,Cc1nn(C)c(Nc2c(F)cccc2F)c1-c1c(F)cccc1F [compound 69],99
10,Cc1nn(C)c(Nc2c(F)cc(F)cc2F)c1-c1ccccc1Br [compound 70],26
11,Cc1nn(C)c(Nc2c(F)cccc2F)c1-c1ccc(F)cc1F [compound 71],99

# Tested on: Blumeria graminis f. sp. tritici
# Assay: Test I: wheat powdery mildew, preventive spray on wheat seedlings, visual disease rating
# Conditions: wheat powdery mildew; 100 = 100% disease control, 0 = no disease control relative to the controls
row,Compound,Test I rating (disease control) [%]
1,COc1ccc(Nc2c(-c3c(F)cccc3F)c(C)nn2C)c(Cl)c1 [compound 60],99
2,Cc1nn(C)c(Nc2ccc(F)cc2Cl)c1-c1ccc(F)cc1F [compound 61],100
3,COc1cc(F)c(-c2c(C)nn(C)c2C(O)c2ccc(F)cc2F)c(F)c1 (centres unmarked) [compound 62],99
4,COc1ccc(Nc2c(-c3ccc(F)cc3F)c(C)nn2C)c(F)c1 [compound 63],99
5,Cc1nn(C)c(Nc2ccc(F)cc2F)c1-c1ccc(F)cc1F [compound 64],100
6,COc1ccc(Nc2c(-c3ccc(F)cc3F)c(C)nn2C)c(Cl)c1 [compound 66],100
7,Cc1nn(C)c(Nc2ccc(Cl)cc2Cl)c1-c1ccc(F)cc1F [compound 67],100
8,Cc1nn(C)c(Nc2ccc(C#N)cc2F)c1-c1ccc(F)cc1F [compound 68],100
9,Cc1nn(C)c(Nc2c(F)cccc2F)c1-c1c(F)cccc1F [compound 69],100
10,Cc1nn(C)c(Nc2c(F)cc(F)cc2F)c1-c1ccccc1Br [compound 70],100
11,Cc1nn(C)c(Nc2c(F)cccc2F)c1-c1ccc(F)cc1F [compound 71],100

# Tested on: Septoria nodorum
# Assay: Test E: Septoria glume blotch, preventive spray on wheat seedlings, visual disease rating
# Conditions: Septoria glume blotch; 100 = 100% disease control, 0 = no disease control relative to the controls
row,Compound,Test E rating (disease control) [%]
1,COc1ccc(Nc2c(-c3c(F)cccc3F)c(C)nn2C)c(Cl)c1 [compound 60],20
2,Cc1nn(C)c(Nc2ccc(F)cc2Cl)c1-c1ccc(F)cc1F [compound 61],64
3,COc1cc(F)c(-c2c(C)nn(C)c2C(O)c2ccc(F)cc2F)c(F)c1 (centres unmarked) [compound 62],99
4,COc1ccc(Nc2c(-c3ccc(F)cc3F)c(C)nn2C)c(F)c1 [compound 63],0
5,Cc1nn(C)c(Nc2ccc(F)cc2F)c1-c1ccc(F)cc1F [compound 64],0
6,COc1ccc(Nc2c(-c3ccc(F)cc3F)c(C)nn2C)c(Cl)c1 [compound 66],0
7,Cc1nn(C)c(Nc2ccc(Cl)cc2Cl)c1-c1ccc(F)cc1F [compound 67],0
8,Cc1nn(C)c(Nc2ccc(C#N)cc2F)c1-c1ccc(F)cc1F [compound 68],0
9,Cc1nn(C)c(Nc2c(F)cccc2F)c1-c1c(F)cccc1F [compound 69],60
10,Cc1nn(C)c(Nc2c(F)cc(F)cc2F)c1-c1ccccc1Br [compound 70],73
11,Cc1nn(C)c(Nc2c(F)cccc2F)c1-c1ccc(F)cc1F [compound 71],96

# Reference: US20170150719A1, “FUNGICIDAL PYRAZOLES AND THEIR MIXTURES” (E I DU PONT DE NEMOURS AND COMPANY, priority 2010, published 2017)
